# According to ChEMBL document CHEMBL4414576, “Recent advancements in mechanistic studies and structure activity relationship of FoF1 ATP synthase inhibitor as antimicrobial agent” (Eur J Med Chem, 2019):
# pIC50: −log10 of the molar value.
# Tests used:
# [1] = tested on: Mycobacterium tuberculosis; test: Antimicrobial activity against Mycobacterium tuberculosis H37Rv after 5 days; type: functional
# ATP synthase = test: Inhibition of ATP synthase in Mycobacterium tuberculosis H37Rv; type: protein-complex assay
# Escherichia coli [2] = test: Inhibition of F1F0-ATP synthase in Escherichia coli relative to control; design: concentration or dose not given beside the values; details: concentration not given here
# Streptococcus pneumoniae = test: Antimicrobial activity against Streptococcus pneumoniae ATCC 49619; type: functional
# Staphylococcus aureus = test: Antimicrobial activity against Staphylococcus aureus ATCC 29213; type: functional
# [3] = Inhibition of F1F0-ATP synthase in Escherichia coli
# [4] = Inhibition of ATP synthase in Mycobacterium smegmatis; design: species or system Mycolicibacterium smegmatis
# [5] = Selectivity index, ratio of IC50 for ATP synthase in Mycobacterium tuberculosis H37Rv to IC50 for mitochondrial ATP synthase isolated from swiss albino mouse liver
# [6] = molecular target: ATP synthase (Mycobacterium tuberculosis) (UniProt P9WPU9+P9WPU5+P9WPU7+P9WPV5+P9WPS1+P9WPV1+P9WPV7+P9WPV3); test: Inhibition of ATP synthase in Mycobacterium tuberculosis H37Rv whole cell lysate after 18 hrs at 10X of MIC relative to control; type: subcellular
# Mus musculus = species on record: Mus musculus; test: Inhibition of mitochondrial ATP synthase isolated from Swiss albino mouse liver at 100 uM using succinate as substrate after 1 hr relative to control
# [7] = Selectivity index, ratio of CC50 for human HepG2 cells to MIC of Mycobacterium tuberculosis H37Rv; type: toxicity
# [8] = tested on: Mycobacterium tuberculosis; test: Antimicrobial activity against Mycobacterium tuberculosis H37Rv; type: functional, organism-based
# Escherichia coli [9] = test: Inhibition of F1F0-ATP synthase in Escherichia coli after 60 mins relative to control; design: concentration or dose not given beside the values
# [10] = Inhibition of F1F0-ATP synthase in Escherichia coli after 60 mins
# [11] = tested on: Mycobacterium tuberculosis H37Rv; test: Inhibition of F0F1-ATP synthase in Mycobacterium tuberculosis H37Rv at […] using succinate as substrate preincubated for 10 mins followed by substrate addition by luciferase reporter gene assay relative to control
# [12] = Inhibition of ATP synthase isolates from rat brain cells using succinate as substrate preincubated for 5 mins followed by substrate addition
# Escherichia coli [13] = test: Inhibition of ATP synthase in Escherichia coli relative to control; details: concentration not given here
# [14] = Inhibition of ATP synthase in Escherichia coli
# [15] = Selectivity index, ratio of CC50 for African green monkey Vero cells to IC50 of Mycobacterium tuberculosis H37Rv; type: toxicity; details: read-out: Ratio IC50
smiles,measurement,setting,value
CCN(CC)Cc1cc(N(c2cc(C)nc3cc(Cl)ccc23)S(=O)(=O)c2ccc(Cl)s2)ccc1O,MIC,[1],6.25 µg/mL
same,pIC50,ATP synthase,5.74 to 6.44
Oc1cc2cc3ccccc3cc2c(O)c1O,inhibition,Escherichia coli [2],30%
Oc1ccccc1O,inhibition,Escherichia coli [2],40%
COc1nc2ccc(Br)cc2cc1[C@H](c1cc(F)ccc1F)[C@](O)(CCCCN(C)C)c1ccccc1,MIC,Streptococcus pneumoniae,0.25 µg/mL
same,MIC,Staphylococcus aureus,1 µg/mL
Oc1cc2cc3ccccc3cc2cc1O,inhibition,Escherichia coli [2],22%
O=[N+]([O-])c1cc(O)ccc1/N=C/c1ccccc1O,pIC50,[3],5.22
same,inhibition,Escherichia coli [2],100%
COc1ccc(/C=C2/S/C(=N/N=C/c3ccccc3O)NC2=O)cc1,pIC50,[4],6.51
same,Ratio IC50,[5],51
same,inhibition,[6],15 to 30%
same,inhibition,Mus musculus,32%
same,selectivity ratio,[7],80
same,MIC,[8],0.5 µg/mL
O=c1c(O)c(-c2ccccc2)oc2cc(O)cc(O)c12,inhibition,Escherichia coli [9],0 to 20%
COc1nc2ccc(Br)cc2cc1[C@@H](c1ccccc1)[C@@](O)(CCN(C)C)c1cccc2ccccc12 [BEDAQUILINE],pIC50,[4],5.19
same,selectivity ratio,[7],> 20000
same,MIC,[8],3.6 µg/mL
Oc1cc(O)c2c(c1)OC(c1ccc(O)c(O)c1)C(O)C2 (configuration not stated) [CATECHIN],inhibition,Escherichia coli [9],100%
same,pIC50,[10],2.40
Oc1cccc(/C=N/c2ccccc2O)c1,pIC50,[3],5.05
same,inhibition,Escherichia coli [2],85%
CCN(CC)Cc1cc(N(c2cc(C)nc3cc(Cl)ccc23)S(=O)(=O)c2cccc(Cl)c2Cl)ccc1O,MIC,[1],3.12 µg/mL
same,pIC50,ATP synthase,5.74 to 6.44
O=c1c(O)c(-c2ccc(O)cc2O)oc2cc(O)cc(O)c12 [MORIN],inhibition,Escherichia coli [9],100%
same,pIC50,[10],4.15
COc1nc2ccc(Br)cc2cc1[C@H](c1ccccc1)[C@](O)(CCCCN1CCN(C)CC1)CCc1ccccc1,MIC,Streptococcus pneumoniae,0.25 µg/mL
same,MIC,Staphylococcus aureus,1 µg/mL
Oc1cccc(/C=N/c2cccc(O)c2)c1,pIC50,[3],5.65
same,inhibition,Escherichia coli [2],100%
COc1ccc([C@@H]2CC(=O)c3c(O)cc(O[C@@H]4O[C@H](CO[C@@H]5O[C@@H](C)[C@H](O)[C@@H](O)[C@H]5O)[C@@H](O)[C@H](O)[C@H]4O)cc3O2)cc1O,inhibition,Escherichia coli [9],40 to 60%
Oc1ccc(/N=C/c2ccccc2O)cc1,pIC50,[3],5.30
same,inhibition,Escherichia coli [2],100%
NNC(=O)c1ccncc1,inhibition,[11],99%
CCN(CC)Cc1cc(N(c2cc(C)nc3cc(Cl)ccc23)S(=O)(=O)c2ccc(Cl)cc2Cl)ccc1O,MIC,[1],3.12 µg/mL
same,pIC50,ATP synthase,5.74 to 6.44
Oc1ccc(/C=N/c2cccc(O)c2)cc1,pIC50,[3],5.05
same,inhibition,Escherichia coli [2],100%
CCN(CC)Cc1cc(N(c2cc(C)nc3cc(Cl)ccc23)S(=O)(=O)c2ccc(Cl)cc2)ccc1O,MIC,[1],6.25 µg/mL
same,pIC50,ATP synthase,5.74 to 6.44
Oc1cc(O)cc(/C=C/c2ccc(O)c(O)c2)c1 [PICEATANNOL],pIC50,[12],5.10
same,inhibition,Escherichia coli [13],100%
same,pIC50,[14],4.85
OC(COC(c1ccccc1)c1cccc2ccccc12)CN1CCN(c2ccccc2)CC1 (configuration not stated),inhibition,[11],91%
COc1ccc(-c2cc(=O)c3c(O)cc(O[C@@H]4O[C@H](CO[C@@H]5O[C@@H](C)[C@H](O)[C@@H](O)[C@H]5O)[C@@H](O)[C@H](O)[C@H]4O)cc3o2)cc1O,inhibition,Escherichia coli [9],40 to 60%
C[C@@H]1O[C@@H](OC[C@H]2O[C@@H](Oc3c(-c4ccc(O)c(O)c4)oc4cc(O)cc(O)c4c3=O)[C@H](O)[C@@H](O)[C@@H]2O)[C@H](O)[C@H](O)[C@H]1O,inhibition,Escherichia coli [9],40 to 60%
O=c1c(O[C@@H]2O[C@H](CO)[C@@H](O)[C@H](O)[C@H]2O)c(-c2ccc(O)c(O)c2)oc2cc(O)cc(O)c12 [ISOQUERCETIN],inhibition,Escherichia coli [13],40%
same,pIC50,[14],4.15
Oc1ccc(/C=C/c2cc(O)cc(O)c2)cc1 [RESVERATROL],pIC50,[12],4.72
same,inhibition,Escherichia coli [13],40%
same,pIC50,[14],4.03
O=C(CNC1CCCC1)N(c1ccccc1)c1ccccc1,selectivity ratio,[15],24
same,pIC50,[8],4.98
CCN(CC)Cc1cc(N(c2cc(C)nc3cc(Cl)ccc23)S(=O)(=O)c2cc(C)cc(C)c2)ccc1O,MIC,[1],6.25 µg/mL
same,pIC50,ATP synthase,5.74 to 6.44
COc1cccc(N2CCN(CC(O)COC(c3ccccc3)c3cccc4ccccc34)CC2)c1 (configuration not stated),inhibition,[11],99%
